Laboratory results taken from patent US8980888B2, “Pyrazole derivative” (Mochida Pharmaceutical Co., Ltd., priority 2013, dated 2015).
pIC50: −log10 of the molar value.

Biological target: T1, Human PDE10 (Homo sapiens, UniProt Q9Y233)
T1 construct: purchased BPA Bioscience (so in the source)
Assay: Human PDE10 inhibitory effect (IMAP TR-FRET enzyme inhibition assay)
Assay type: biochemical
Conditions: PDE10 inhibitory activity, cAMP substrate
Description: (Evaluation of Enzyme Inhibitory Activity: Human PDE10 Inhibitory Effect)
IMAP TR-FRET Phosphodiersterase Evaluation Assay Kit (Molecular Device) was used for the measurement. Ten μL of a diluted test compound having each concentration and 5 μL of the enzyme PDE10 (BPA Bioscience) that had been diluted to 2 ng/mL with 1×IMAP Reaction Buffer (prepared with 5× included with the kit, 10 mM Tris-HCl, pH=7.2, 10 mM MgCl2, 0.05% NaN3, and 0.1% BSA) containing 0.1% BSA were added to a 384-well plate (Corning). The obtained mixture was then pre-incubated at room temperature for 5 minutes. Thereafter, 5 μL of cAMP substrate solution which was included with the kit and diluted to 400 nM with 1×IMAP Reaction Buffer containing 0.1% BSA, was added to the reaction solution, and the obtained mixture was reacted at room temperature for 60 minutes. Thereafter, 60 μL of an IMAP TR-FRET Binding solution included with the kit was further added to the reaction solution, and the obtained mixture was then left for 3 hours or more. Subsequently, using ARVO SX (PerkinElmer), the fluorescent intensity of Terbium (Emission=490 nm) and TR-FRET (Emission=520 nm) in the reaction solution were measured at an excitation wavelength of 340 nm, so as to calculate the amount of the generated 5′-AMP. The count of a well to which a solvent had been added instead of the test compound was set at 0%, and the count of a well to which the enzyme PDE10 had not been added was set at 100%. Thus, the inhibitory activity of each test compound was calculated.
The PDE10 inhibitory activity of the test compound was indicated with an IC50 value. […] The test compounds are shown in Table 3 (Table 3-1 and Table 3-2).

T1 sequence (Q9Y233 whole entry): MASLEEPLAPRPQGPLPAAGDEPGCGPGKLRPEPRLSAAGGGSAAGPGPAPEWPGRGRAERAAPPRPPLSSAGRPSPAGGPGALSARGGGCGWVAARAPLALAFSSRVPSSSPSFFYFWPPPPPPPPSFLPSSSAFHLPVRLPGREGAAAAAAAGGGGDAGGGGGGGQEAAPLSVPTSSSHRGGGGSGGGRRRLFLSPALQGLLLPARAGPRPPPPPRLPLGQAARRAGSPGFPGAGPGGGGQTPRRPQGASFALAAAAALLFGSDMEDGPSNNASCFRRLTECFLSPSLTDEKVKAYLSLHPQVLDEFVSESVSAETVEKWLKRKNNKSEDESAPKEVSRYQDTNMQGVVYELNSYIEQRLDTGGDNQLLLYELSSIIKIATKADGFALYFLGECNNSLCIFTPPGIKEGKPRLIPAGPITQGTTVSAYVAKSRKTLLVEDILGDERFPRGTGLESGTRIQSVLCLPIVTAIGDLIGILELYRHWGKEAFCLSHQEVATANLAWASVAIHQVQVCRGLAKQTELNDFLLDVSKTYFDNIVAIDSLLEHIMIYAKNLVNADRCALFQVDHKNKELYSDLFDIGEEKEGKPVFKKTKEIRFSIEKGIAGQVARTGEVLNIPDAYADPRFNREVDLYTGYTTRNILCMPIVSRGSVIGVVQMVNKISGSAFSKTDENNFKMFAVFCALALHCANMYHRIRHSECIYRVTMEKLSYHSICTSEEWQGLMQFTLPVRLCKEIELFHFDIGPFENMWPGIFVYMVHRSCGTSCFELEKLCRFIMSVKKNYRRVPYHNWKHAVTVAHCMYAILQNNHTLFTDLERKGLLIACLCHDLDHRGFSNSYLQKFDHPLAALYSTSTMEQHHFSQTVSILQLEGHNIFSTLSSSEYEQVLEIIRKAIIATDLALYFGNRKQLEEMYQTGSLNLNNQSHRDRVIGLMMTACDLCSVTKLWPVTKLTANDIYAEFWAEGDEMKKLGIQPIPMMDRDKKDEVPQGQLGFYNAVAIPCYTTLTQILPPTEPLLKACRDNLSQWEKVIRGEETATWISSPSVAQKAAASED

Row | SMILES | pIC50
1 | Cc1ncc(C)c(-c2cnn(C)c2C(=O)Nc2cc3nc(-c4ccccc4C)nn3cc2F)n1 [Example 3.50, 4-(2,5-dimethylpyrimidin-4-yl)-N-(6-fluoro-2-(o-tolyl)-[1,2,4]triazolo[1,5-a]pyridin-7-yl)-1-methyl-1H-pyrazole-5-carboxamide] | > 8.30
2 | Cn1ncc(-c2cscn2)c1C(=O)NC1CCn2cc(-c3ccccc3)nc2C1 (stereo not drawn) [Example 2.25, 1-methyl-N-(2-phenyl-5,6,7,8-tetrahydroimidazo[1,2-a]pyridin-7-yl)-4-(thiazol-4-yl)-1H-pyrazole-5-carboxamide] | 7.00 to 8.30
3 | Cc1sc(-c2cnn(C)c2C(=O)NC2CCn3nc(-c4ccccc4)nc3C2)nc1C(F)F (stereo not drawn) [Example 5.1, 4-(4-(difluoromethyl)-5-methylthiazol-2-yl)-1-methyl-N-(2-phenyl-5,6,7,8-tetrahydro-[1,2,4]triazolo[1,5-a]pyridin-7-yl)-1H-pyrazole-5-carboxamide] | > 8.30
4 | C[C@@H]1CN(c2nc3cc(NC(=O)c4c(-c5nc(C(F)F)c(Cl)s5)cnn4C)ccn3n2)C[C@H](C)O1 [Example 4.36, 4-(5-chloro-4-(difluoromethyl)thiazol-2-yl)-N-(2-((2S,6R)-2,6-dimethylmorpholino)-[1,2,4]triazolo[1,5-a]pyridin-7-yl)-1-methyl-1H-pyrazole-5-carboxamide] | 7.00 to 8.30
5 | Cn1ncc(-c2nccs2)c1C(=O)NC1CCn2cc(-c3ccccc3)nc2C1 (stereo not drawn) [Example 2.26, 1-methyl-N-(2-phenyl-5,6,7,8-tetrahydroimidazo[1,2-a]pyridin-7-yl)-4-(thiazol-2-yl)-1H-pyrazole-5-carboxamide] | 7.00 to 8.30
6 | CC(=O)c1sc(C)nc1-c1cnn(C)c1C(=O)NC1CCn2nc(-c3ccccc3)nc2C1 (stereo not drawn) [Example 5.30, 4-(5-acetyl-2-methylthiazol-4-yl)-1-methyl-N-(2-phenyl-5,6,7,8-tetrahydro-[1,2,4]triazolo[1,5-a]pyridin-7-yl)-1H-pyrazole-5-carboxamide] | 7.00 to 8.30
7 | Cc1cccnc1-c1cnn(C)c1C(=O)NC1CCn2nc(-c3ccccc3)nc2C1 (stereo not drawn) [Example 5.22, 1-methyl-4-(3-methylpyridin-2-yl)-N-(2-phenyl-5,6,7,8-tetrahydro-[1,2,4]triazolo[1,5-a]pyridin-7-yl)-1H-pyrazole-5-carboxamide] | 7.00 to 8.30
8 | Cn1ncc(-c2nc(C(F)F)cs2)c1C(=O)NC1CCn2nc(-c3cccc(F)c3)nc2C1 (stereo not drawn) [Example 5.33, 4-(4-(difluoromethyl)thiazol-2-yl)-N-(2-(3-fluorophenyl)-5,6,7,8-tetrahydro-[1,2,4]triazolo[1,5-a]pyridin-7-yl)-1-methyl-1H-pyrazole-5-carboxamide] | 7.00 to 8.30
9 | Cn1cnc(-c2cnn(C)c2C(=O)NC2CCn3cc(-c4ccccc4)nc3C2)c1 (stereo not drawn) [Example 2.17, 1-methyl-4-(1-methyl-1H-imidazol-4-yl)-N-(2-phenyl-5,6,7,8-tetrahydroimidazo[1,2-a]pyridin-7-yl)-1H-pyrazole-5-carboxamide] | 7.00 to 8.30
10 | Cc1nc(-c2cnn(C)c2C(=O)NC2CCn3nc(-c4ccc(F)cc4)nc3C2)sc1C1CC1 (stereo not drawn) [Example 5.43, 4-(5-cyclopropyl-4-methylthiazol-2-yl)-N-(2-(4-fluorophenyl)-5,6,7,8-tetrahydro-[1,2,4]triazolo[1,5-a]pyridin-7-yl)-1-methyl-1H-pyrazole-5-carboxamide] | 7.00 to 8.30
11 | Cn1ncc(-c2nc(C(F)F)c(C3CC3)s2)c1C(=O)NC1CCn2nc(-c3ccc(F)cc3)nc2C1 (stereo not drawn) [Example 5.35, 4-(5-cyclopropyl-4-(difluoromethyl)thiazol-2-yl)-N-(2-(4-fluorophenyl)-5,6,7,8-tetrahydro-[1,2,4]triazolo[1,5-a]pyridin-7-yl)-1-methyl-1H-pyrazole-5-carboxamide] | 7.00 to 8.30
12 | C[C@H]1CCCN1c1nc2cc(NC(=O)c3c(-c4cccc(C(F)(F)F)n4)cnn3C)ccn2n1 [Example 4.3, (S)-1-methyl-N-(2-(2-methylpyrrolidin-1-yl)-[1,2,4]triazolo[1,5-a]pyridin-7-yl)-4-(6-(trifluoromethyl)pyridin-2-yl)-1H-pyrazole-5-carboxamide] | > 8.30
